Data taken from patent US11857601B2, “Pharmaceutical composition for cancer treatment comprising fusion protein including IL-2 protein and CD80 protein and anticancer drug” (GI INNOVATION, INC., priority 2020, dated 2024).

What was measured:
[1] = system: HCT116 cells; assay: Cancer cell killing, GI-101 and Pertuzumab, HCT116 with NK cells; format: cell-based, human; settings: GI-101 0.4-100 nM, Pertuzumab 16.9 nM, 24 hours
Description: This experiment was to evaluate the effect of killing cancer cells by treating HCT116 cells (human colon cancer cells) with the test substance GI-101 alone or in combination with Pertuzumab substance in an in vitro environment.
HCT116 cells were purchased from the Korea cell line bank and cultured in McCoy's 5A medium (ATCC) containing 10% FBS (Gibco) and 1% antibiotic/antifungal agent (Gibco). For use in cancer cell killing test, the cells were harvested using trypsin (Gibco), and then suspended in McCoy's 5A medium, and then dead cells and debris were removed using Ficoll (GE Healthcare Life Sciences) solution. The cells suspended in McCoy's 5A medium were carefully layered on ficoll solution. […]
In order to identify the effect of killing the cells, a CytoTox Green reagent ([…]™ CytoTox Green, Satorius) that binds to the DNA of cells to be killed was prepared in 1 μl per 1 mL of RPMI1640 medium containing 5% human AB serum (Sigma). The prepared medium was used for dilution of the test substance, and the effect of killing the cells could be quantitatively identified by staining the cells to be killed when the test substance was co-cultured with cancer cell lines and PBMCs. […]

[2] = system: immune cells in cancer tissues; assay: Immune cell analysis in LL/2 cancer tissue (FACS); format: in vivo, C57BL/6 mice
Protocol: The mice of each group in Experimental Example 16.1 were sacrificed when the tumor volume reached an average of 200 mm^3, and cancer tissues were collected.
Thereafter, FACS analysis was performed in the same manner as Experimental Example 16.2. to analyze immune cells in the cancer tissues.

[3] = system: LL/2 cell line; assay: mGI-101 and Axitinib in LL/2 allotransplanted tumor model; format: in vivo, C57BL/6 mice; settings: mGI-101 3 mg/kg IP, Axitinib 30 mg/kg PO
Protocol: Mouse-derived colorectal cancer cells, CT26 (Mus musculus, Colon adenocarcinoma), and mouse-derived lung cancer cells, LL/2 (Mus musculus, Lung adenocarcinoma), were purchased from ATCC (USA) and used for the test. The cells to be used for the test were thawed, mixed with RPMI1640 (A1049101, Thermofisher scientific) medium containing 10% FBS (fetal bovine serum, Gibco, 10082-147), and then placed in a cell culture flask, and cultured in a 37° C., 5% CO2 incubator. The cells were washed with PBS, and then the cells were isolated using Trypsin-EDTA (15090, Gibco), and centrifugation (125×g, 5 minutes) was performed to discard the supernatant, and then the cells were suspended in a new medium to obtain the cell suspension. The viability of the cells was identified, and then a cell line was prepared by diluting in a medium to a concentration of 5.0×10^6 cells/mL.
6-week-old male BALB/cAnHsd mice or C57BL/6NHsd mice were purchased and used for the test. After the end of the acclimation period of 7 days, the cells were transplanted into healthy animals. The cell suspension (5×10^6 cells/mL) was dispensed, and filled into a disposable syringe, and transplantation of the suspension was performed by subcutaneous administration at 0.1 mL/head in the right dorsal region of the animals. General symptoms were observed once a day during the engraftment and growth period after cell line transplantation.
After the inoculation of the cell line was performed, when the tumor size at the site to which the cell line was transplanted reached about 50 mm^3, the tumor size of each group was distributed as uniformly as possible according to the ranked tumor size.
The test substance was administered orally or intraperitoneally, and administered for 3 weeks depending on the composition of the test group. In the case of oral administration, the animals were fixed with the cervical spine skin fixation method, and administered directly into the stomach using a sonde for oral administration. In the case of intraperitoneal administration, the animals were fixed with the cervical spine skin fixation method, and administered intraperitoneally using a syringe equipped with a 26 gauge needle. The administration rate was not to exceed 200 μl/min.
Syngeneic model was prepared by subcutaneously transplanting the LL/2 cell line into C57BL/6 mice, and then the test substance was administered to evaluate the anticancer effect.

“GI101: fusion protein: human CD80 fragment, Ig hinge, Fc domain, linker, IL-2 variant (2M) (R38A, F42A); SEQ ID NO: 9” was tested, and the “effect of killing cancer cells” value [1] was “excellent effect of killing cancer cells”, the “CD8+ T cells in cancer tissue” value ([2]; 0.1 mg/kg, compared with anti-PD-1 antibody alone) was “significant increase” and the “level of CD86 expression in macrophages and dendritic cells” value ([2]; all GI101 groups) was “increased level”. For the same substance, the “level of expression of IFN-γ” value ([2]; all GI101 groups, vs negative control) was “significantly increased level”.

“mGI101: fusion protein: mouse CD80, Ig hinge, Fc domain, linker, IL-2 variant (2M) (R38A, F42A); SEQ ID NO: 15” showed a Tumor size ([3]; Day 0, mean ± SD) of 55.70 ± 11.48 mm^3, a Tumor growth inhibition ([3]; Day 2, mean ± SD) of −7.12 ± 34.31% and a Tumor size ([3]; Day 2, mean ± SD) of 99.18 ± 19.96 mm^3. The Tumor growth inhibition ([3]; Day 5, mean ± SD) was 1.83 ± 27.19%, the Tumor size ([3]; Day 5, mean ± SD) was 179.58 ± 39.71 mm^3 and the Tumor growth inhibition ([3]; Day 7, mean ± SD) was 12.67 ± 19.15%. It also gave a Tumor size ([3]; Day 7, mean ± SD) of 409.37 ± 72.98 mm^3, a Tumor growth inhibition ([3]; Day 9, mean ± SD) of 5.78 ± 24.08% and a Tumor size ([3]; Day 9, mean ± SD) of 749.00 ± 174.47 mm^3. The Tumor growth inhibition ([3]; Day 12, mean ± SD) was 6.89 ± 28.47%, the Tumor size ([3]; Day 12, mean ± SD) was 1066.72 ± 307.18 mm^3 and the Tumor growth inhibition ([3]; Day 14, mean ± SD) was 1.85 ± 36.39%. For the same substance, the Tumor size ([3]; Day 14, mean ± SD) was 1608.00 ± 572.50 mm^3, the Tumor growth inhibition ([3]; Day 16, mean ± SD) was 0.91 ± 39.37% and the Tumor size ([3]; Day 16, mean ± SD) was 2200.03 ± 850.12 mm^3. For the same substance, the Tumor growth inhibition ([3]; Day 19, mean ± SD) was −5.99 ± 39.91%, the Tumor size ([3]; Day 19, mean ± SD) was 3223.87 ± 1191.11 mm^3 and the Tumor growth inhibition ([3]; Day 21, mean ± SD) was −2.78 ± 32.04%. It also gave a Tumor size ([3]; Day 21, mean ± SD) of 5431.08 ± 1673.60 mm^3.
